Assay results: patent US20250129027A1 (APOGEE PHARMACEUTICALS, INC., priority 2023, published 2025)

Key:
human recombinant MAGL = human recombinant MAGL (Homo sapiens (Human), UniProt Q99685); assay: In vitro inhibition of MAGL activity (inhibitor screening kit, 4-nitrophenylacetate); assay type: biochemical; details: for IC50: human recombinant MAGL
How it was run: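 Colorimetric kit assay: recombinant human MAGL hydrolyses 4-nitrophenylacetate to 4-nitrophenol, read by absorbance at 405-412 nm. Inhibition given as percentage of signal in treated versus untreated MAGL control.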

human recombinant FAAH = human recombinant FAAH (Homo sapiens (Human), UniProt O00519); assay: In vitro inhibition of FAAH activity (fluorescent inhibitor screening kit, AMC arachidonoyl amide); assay type: biochemical; details: human recombinant FAAH; read-out: Inhibition on FAAH activity (IC50)
How it was run: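 Fluorogenic kit assay: AMC arachidonoyl amide is cleaved by human recombinant FAAH, read at 340-360/450-465 nm. Percent inhibition versus non-treated control; IC50 values derived from multiple compound concentrations where tested.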

human recombinant FAAH, sequence (O00519 whole entry): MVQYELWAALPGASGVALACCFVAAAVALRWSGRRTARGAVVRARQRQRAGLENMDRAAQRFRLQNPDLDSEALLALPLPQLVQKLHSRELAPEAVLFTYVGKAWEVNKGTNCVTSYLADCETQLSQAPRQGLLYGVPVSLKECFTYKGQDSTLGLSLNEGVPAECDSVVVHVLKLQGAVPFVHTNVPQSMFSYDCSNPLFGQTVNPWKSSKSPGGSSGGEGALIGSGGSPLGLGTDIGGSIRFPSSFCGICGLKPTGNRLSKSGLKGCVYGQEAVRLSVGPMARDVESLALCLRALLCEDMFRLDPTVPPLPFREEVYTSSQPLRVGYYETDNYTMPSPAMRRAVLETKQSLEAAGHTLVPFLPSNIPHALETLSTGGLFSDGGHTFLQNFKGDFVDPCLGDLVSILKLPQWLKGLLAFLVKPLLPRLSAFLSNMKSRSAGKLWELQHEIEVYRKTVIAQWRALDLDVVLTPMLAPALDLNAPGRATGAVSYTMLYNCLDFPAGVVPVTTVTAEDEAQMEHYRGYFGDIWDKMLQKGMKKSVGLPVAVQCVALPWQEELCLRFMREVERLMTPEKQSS
human recombinant MAGL, sequence (Q99685 whole entry): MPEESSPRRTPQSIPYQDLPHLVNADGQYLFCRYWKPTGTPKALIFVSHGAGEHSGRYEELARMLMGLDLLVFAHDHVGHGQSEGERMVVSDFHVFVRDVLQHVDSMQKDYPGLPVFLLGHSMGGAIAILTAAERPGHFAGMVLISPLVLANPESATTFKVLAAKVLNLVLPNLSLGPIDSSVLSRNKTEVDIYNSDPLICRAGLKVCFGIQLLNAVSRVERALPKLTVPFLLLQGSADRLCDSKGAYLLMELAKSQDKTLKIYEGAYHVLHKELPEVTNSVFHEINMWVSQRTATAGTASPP

SMILES | IC50 (human recombinant MAGL) | IC50 (human recombinant FAAH) | fold-selectivity over MAGL (selectivity index) (human recombinant MAGL; FAAH over MAGL)
O=C(NCC1CCCCC1)Oc1ccc(O)c(-c2cncc(-c3nnn[nH]3)c2)c1 [Example 245, 3-(5-(1H-tetrazol-5-yl)pyridin-3-yl)-4-hydroxyphenyl (cyclohexylmethyl)carbamate] | > 10 µM | > 1000 nM | –
O=C(NCc1ccccc1)Oc1cccc(-c2cncc(-c3ncn[nH]3)c2)c1 [Example 221, 3-(5-(1H-1,2,4-triazol-5-yl)pyridin-3-yl)phenyl benzyl carbamate] | > 10 µM | 100 to 1000 nM | –
O=C(Nc1cnccc1Cl)N1CCN(Cc2ccc3c(c2)OC(F)(F)O3)CC1 [JNJ-42165279, reference compound] | > 50 µM | 106 nM | 473 times
CCCCCCCCNC(=O)Oc1ccc(OC)c(-c2cncc(-c3ncco3)c2)c1 [Example 78, 4-methoxy-3-(5-(oxazol-2-yl)pyridin-3-yl)phenyl octylcarbamate] | 1 to 10 µM | 10 to 100 nM | –
COc1ccc(OC(=O)NCC2CCCCC2)cc1-c1cncc(-c2ccco2)c1 [Example 54, 3-(5-(furan-2-yl)pyridin-3-yl)-4-methoxyphenyl (cyclohexylmethyl)carbamate] | ~10 µM | 100 to 1000 nM | –
COc1ccc(OC(=O)NC2CCCCC2)cc1-c1cncc(-c2ncco2)c1 [Example 81, 4-methoxy-3-(5-(oxazol-2-yl)pyridin-3-yl)phenyl cyclohexylcarbamate] | > 10 µM | 10 to 100 nM | –
O=C(NC1CCCC1)Oc1cccc(-c2cncc(-c3ccco3)c2)c1 [Example 50, 3-(5-(furan-2-yl)pyridin-3-yl)phenyl cyclopentylcarbamate] | ~10 µM | 10 to 100 nM | –
O=C(NCc1ccccc1)Oc1cccc(-c2cncc(-c3cccs3)c2)c1 [Example 61, 3-(5-(thiophen-2-yl)pyridin-3-yl)phenyl benzylcarbamate] | > 10 µM | ~100 nM | –
COc1ccc(OC(=O)NCc2ccccc2)cc1-c1cncc(-c2nccs2)c1 [Example 123, 4-methoxy-3-(5-(thiazol-2-yl)pyridin-3-yl)phenyl benzylcarbamate] | > 10 µM | ~1000 nM | –
CCCCCCCCNC(=O)Oc1ccc(OC)c(-c2cncc(-c3nnn[nH]3)c2)c1 [Example 250, 3-(5-(1H-tetrazol-5-yl)pyridin-3-yl)-4-methoxyphenyl octylcarbamate] | ~10 µM | 100 to 1000 nM | –
COc1ccc(OC(=O)NCC2CCCCC2)cc1-c1cncc(-c2ccc[nH]2)c1 [Example 42, 3-(5-(1H-pyrrol-2-yl)pyridin-3-yl)-4-methoxyphenyl (cyclohexylmethyl)carbamate] | ~10 µM | 100 to 1000 nM | –
O=C(NC1CCCC1)Oc1cccc(-c2cncc(-c3ncn[nH]3)c2)c1 [Example 223, 3-(5-(1H-1,2,4-triazol-5-yl)pyridin-3-yl)phenyl cyclopentylcarbamate] | > 10 µM | 100 to 1000 nM | –
O=C(Oc1cccc(-c2cncc(-c3nnco3)c2)c1)N1CC2(COC2)C1 [Example 152, 3-(5-(1,3,4-oxadiazol-2-yl)pyridin-3-yl)phenyl 2-oxa-6-azaspiro[3.3]heptane-6-carboxylate] | > 10 µM | > 1000 nM | –
COc1ccc(OC(=O)NC2CCCC2)cc1-c1cncc(-c2nccs2)c1 [Example 124, 4-methoxy-3-(5-(thiazol-2-yl)pyridin-3-yl)phenyl cyclopentylcarbamate] | > 10 µM | 100 to 1000 nM | –
CC1CCC(NC(=O)Oc2ccc(F)c(-c3cncc(-c4ncco4)c3)c2)CC1 (stereo not drawn) [Example 86, 4-fluoro-3-(5-(oxazol-2-yl)pyridin-3-yl)phenyl (4-methylcyclohexyl)carbamate] | > 10 µM | 10 to 100 nM | –
CCCCCCCCNC(=O)Oc1cccc(-c2cncc(-c3cccs3)c2)c1 [Example 59, 3-(5-(thiophen-2-yl)pyridin-3-yl)phenyl octylcarbamate] | > 10 µM | 10 to 100 nM | –
COc1ccc(OC(=O)NCc2ccccc2)cc1-c1cncc(-c2nncs2)c1 [Example 215, 3-(5-(1,3,4-thiadiazol-2-yl)pyridin-3-yl)-4-methoxyphenyl benzylcarbamate] | > 10 µM | 100 to 1000 nM | –
O=C(NCc1ccc2ccccc2c1)Oc1cccc(-c2cncc(-c3ncn[nH]3)c2)c1 [Example 222, 3-(5-(1H-1,2,4-triazol-5-yl)pyridin-3-yl)phenyl (naphthalen-2-ylmethyl)carbamate] | ~10 µM | 10 to 100 nM | –
O=C(NCC1CCCCC1)Oc1cccc(-c2cncc(-c3nnn[nH]3)c2)c1 [Example 239, 3-(5-(1H-tetrazol-5-yl)pyridin-3-yl)phenyl (cyclohexylmethyl)carbamate] | > 10 µM | > 1000 nM | –
CC1CCC(NC(=O)Oc2ccc(F)c(-c3cncc(-c4nnco4)c3)c2)CC1 (stereo not drawn) [Example 193, 3-(5-(1,3,4-oxadiazol-2-yl)pyridin-3-yl)-4-fluorophenyl (4-methylcyclohexyl)carbamate] | > 10 µM | 10 to 100 nM | –

SMILES | IC50 (human recombinant MAGL) | IC50 (human recombinant FAAH) | fold-selectivity over MAGL (selectivity index) (human recombinant MAGL; FAAH over MAGL)
CCCCCCCCCCCCCCNC(=O)Oc1cccc(-c2cncc(C(=O)OCC)c2)c1 [Example 4, ethyl 5-(3-((tetradecylcarbamoyl)oxy)phenyl)nicotinate] | 1 to 10 µM | 1 to 10 nM | –
O=C(NC1CCCC1)Oc1ccc(O)c(-c2cncc(-c3ncn[nH]3)c2)c1 [Example 229, 3-(5-(1H-1,2,4-triazol-5-yl)pyridin-3-yl)-4-hydroxyphenyl cyclopentylcarbamate] | > 10 µM | 10 to 100 nM | –
O=C(Oc1cccc(-c2cncc(-c3nnco3)c2)c1)N1CC2CC2C1 (stereo not drawn) [Example 148, 3-(5-(1,3,4-oxadiazol-2-yl)pyridin-3-yl)phenyl 3-azabicyclo[3.1.0]hexane-3-carboxylate] | > 10 µM | > 1000 nM | –
CCCCCCCCNC(=O)Oc1ccc(OC)c(-c2cncc(-c3nccs3)c2)c1 [Example 121, 4-methoxy-3-(5-(thiazol-2-yl)pyridin-3-yl)phenyl octylcarbamate] | ~10 µM | 10 to 100 nM | –
O=C(NCC1CCCCC1)Oc1cccc(-c2cncc(-c3ncco3)c2)c1 [Example 74, 3-(5-(oxazol-2-yl)pyridin-3-yl)phenyl (cyclohexylmethyl)carbamate] | > 1 µM | 10 to 100 nM | –
O=Cc1cncc(-c2cccc(OC(=O)NCC3CCCCC3)c2)c1 [Example 17, 3-(5-formylpyridin-3-yl)phenyl (cyclohexylmethyl)carbamate] | > 10 µM | 10 to 100 nM | –
O=C(NCc1ccccc1)Oc1cccc(-c2cncc(-c3nccs3)c2)c1 [Example 117, 3-(5-(thiazol-2-yl)pyridin-3-yl)phenyl benzylcarbamate] | > 10 µM | 100 to 1000 nM | –
O=C(NC1CCCCC1)Oc1ccc(O)c(-c2cncc(-c3nnn[nH]3)c2)c1 [Example 248, 3-(5-(1H-tetrazol-5-yl)pyridin-3-yl)-4-hydroxyphenyl cyclohexylcarbamate] | > 10 µM | > 1000 nM | –
COc1ccc(OC(=O)NCC2CCCCC2)cc1-c1cncc(-c2cccs2)c1 [Example 66, 4-methoxy-3-(5-(thiophen-2-yl)pyridin-3-yl)phenyl (cyclohexylmethyl)carbamate] | ~10 µM | 100 to 1000 nM | –
CCOC(=O)c1cncc(-c2cccc(OC(=O)NC3CCCC3)c2)c1 [Example 5, ethyl 5-(3-((cyclopentylcarbamoyl)oxy)phenyl)nicotinate] | > 10 µM | 10 to 100 nM | –
CCCCCCCCNC(=O)Oc1cccc(-c2cncc(-c3nccs3)c2)c1 [Example 115] | ~10 µM | 1 to 10 nM | –
O=C(NC1CCCCC1)Oc1cc(O)cc(-c2cncc(-c3nnco3)c2)c1 [Example 164, 3-(5-(1,3,4-oxadiazol-2-yl)pyridin-3-yl)-5-hydroxyphenyl cyclohexylcarbamate] | > 50 µM | 10 to 100 nM | –
COC(=O)c1cncc(-c2cccc(OC(=O)NC34CC5CC(CC(C5)C3)C4)c2)c1 [Example 13, methyl 5-(3-((((1s,3s)-adamantan-1-yl)carbamoyl)oxy)phenyl)nicotinate] | > 10 µM | > 1000 nM | –
COc1ccc(OC(=O)NC2CCCC2)cc1-c1cncc(-c2nncs2)c1 [Example 216, 3-(5-(1,3,4-thiadiazol-2-yl)pyridin-3-yl)-4-methoxyphenyl cyclopentylcarbamate] | > 10 µM | 100 to 1000 nM | –
N#Cc1cncc(-c2cccc(OC(=O)NC3CCCCCC3)c2)c1 [Example 29, 3-(5-cyanopyridin-3-yl)phenyl cycloheptylcarbamate] | > 10 µM | ~100 nM | –
O=C(NCC1CCCCC1)Oc1cccc(-c2cncc(-c3nccs3)c2)c1 [Example 116, 3-(5-(thiazol-2-yl)pyridin-3-yl)phenyl (cyclohexylmethyl)carbamate] | ~10 µM | 10 to 100 nM | –
CCCCCCCCNC(=O)Oc1ccc(OC)c(-c2cncc(-c3ncn[nH]3)c2)c1 [Example 232, 3-(5-(1H-1,2,4-triazol-5-yl)pyridin-3-yl)-4-methoxyphenyl octylcarbamate] | ~10 µM | 10 to 100 nM | –
CN(C)c1ccc(OC(=O)NC2CCCCCC2)cc1-c1cncc(-c2nnco2)c1 [Example 185, 3-(5-(1,3,4-oxadiazol-2-yl)pyridin-3-yl)-4-(dimethylamino)phenyl cycloheptylcarbamate] | > 10 µM | 100 to 1000 nM | –
O=C(NC12CC3CC(CC(C3)C1)C2)Oc1cccc(-c2cncc(-c3ncco3)c2)c1 [Example 77, 3-(5-(oxazol-2-yl)pyridin-3-yl)phenyl ((1s,3s)-adamantan-1-yl)carbamate] | > 10 µM | > 1000 nM | –
Cc1ccc(-c2cncc(-c3ncco3)c2)cc1OC(=O)NC1CCCCCC1 [Example 97, 2-methyl-5-(5-(oxazol-2-yl)pyridin-3-yl)phenyl cycloheptylcarbamate] | > 1 µM | > 1000 nM | –
